Where “and” joins values, the source holds several entries; their conditions need not be identical. Equal entries are not always repeated.
Tests used:
[1] = system: procollagen I; test: In vitro skin biomarker test, procollagen I ELISA in MatTek human skin equivalent; type: cell-based; details: average of cultures, 24 hours after treatment; Glyco-Repair 3% topical, TGF-b 2 ng/mL in media
Protocol: (§1) The model used in the test is a MatTek™ brand human skin equivalent available from the MatTek Corporation, which is a full thickness culture system that emulates normal human skin properties and function. The MatTek™ brand skin model contains a three-dimensional, highly differentiated human epidermis with 8-12 cell layers including basal, spinous, granular and stratum corneum layers. The epidermis is grown above a human dermal fibroblast-containing collagen matrix. The skin model is configured to permit the topical application of test materials to the stratum corneum surface of the model. The skin model cultures are supplied in 24-well plate. Each well of the plate includes a snap-well fitting and the skin culture in a media-supplemented agarose gel.
(§2) Prior to testing, the skin model cultures are examined for visual defects and equilibrated overnight at 37° C., 5% CO2, and 95% RH. The skin cultures were transferred to fresh 24-well plates by removing the snap-well fitting along with the skin culture and placing it in a well of the new plate. […]
(§3) Twenty-four hours after treatment, the skin cultures were removed from the incubator and visually inspected for defects (e.g., to see if media leaked up through the culture insert). […] The supernatant was collected and analyzed with a Micro BCA kit to quantitate protein concentration. […]

[2] = system: hyalauronic acid; test: In vitro skin biomarker test, hyalauronic acid ELISA in MatTek human skin equivalent; type: cell-based; details: 24 hours after treatment, Glyco-Repair 3% topical, TGF-b 2 ng/mL in media
Protocol: as §1, §2, §3

In the case of transforming growth factor beta [TGF-b], the “Avg Normalized Protein (procollagen I)” value [1] is reported as 29.8, the “Avg (normalized protein, hyalauronic acid)” value ([2]; average of cultures) is reported as 2.8 and the HA ([2]; single skin cultures) is reported as 562 ng/mL and 480 ng/mL and 598 ng/mL and 545 ng/mL and 568 ng/mL.
